In patent publication US20170204092A1, “4,5-DIHYDROISOXAZOLE DERIVATIVES AS NAMPT INHIBITORS” (AURIGENE DISCOVERY TECHNOLOGIES LIMITED, priority 2014, published 2017):
pIC50: −log10 of the molar value. Read-outs that look alike come from different tables or passages of the source.

Experiments:
[1] = molecular target: T1, recombinant NAMPT wild type protein (Homo sapiens, UniProt P43490); experiment: NAMPT fluorescence assay; assay type: biochemical; settings: 50 ng NAMPT, 2 μM Nam, 10 point dose response; read-out: Fluorescence assay IC50 in range
T1 construct: made in house; host or cells: E. coli
T1 sequence (P43490 whole entry): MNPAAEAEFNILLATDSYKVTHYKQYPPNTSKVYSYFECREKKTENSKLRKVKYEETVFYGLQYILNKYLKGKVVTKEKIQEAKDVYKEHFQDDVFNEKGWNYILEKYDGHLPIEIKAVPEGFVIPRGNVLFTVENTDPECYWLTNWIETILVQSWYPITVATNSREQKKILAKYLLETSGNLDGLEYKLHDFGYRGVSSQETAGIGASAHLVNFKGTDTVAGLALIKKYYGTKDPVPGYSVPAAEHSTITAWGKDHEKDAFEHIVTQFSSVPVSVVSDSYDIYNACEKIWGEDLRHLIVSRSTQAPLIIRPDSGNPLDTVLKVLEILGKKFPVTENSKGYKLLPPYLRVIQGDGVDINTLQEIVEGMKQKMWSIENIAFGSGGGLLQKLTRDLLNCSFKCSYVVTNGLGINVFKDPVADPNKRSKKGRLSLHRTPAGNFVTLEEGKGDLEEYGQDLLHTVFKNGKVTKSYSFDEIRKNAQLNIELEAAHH
Experimental: The enzymatic assay was standardized using in-house recombinant NAMPT wild type protein from E. coli expression & NAM (Cat #47865-U) as a substrate. The product NMN formed after enzymatic reaction was derivatized to a fluorescent derivative through sequentially reacting with acetophenone/KOH and formic acid. The derivatized fluorescent NMN derivative was detected at 382 nm excitation wavelength and a 445 nm emission wavelength. […] The fluorescence was measured (Excitation at 382 nm & Emission at 445 nm) using Victor^3 V fluorimeter. The data is calculated using the RFU values. The final concentration of DMSO was 2% in the assay. Each individual IC50 was determined using 10 point dose response curve generated by GraphPad Prism software Version 4 (San Diego, Calif., USA) using nonlinear regression curve fit for sigmoidal dose response (variable slope).

MiaPaCa-2 cells = experiment: Cytotoxicity assay in MiaPaCa-2 (XTT, 72 h); assay type: cell-based; settings: for pIC50: XTT, read-out: Cell cytotoxicity assay IC50 in range; for inhibition at 1 µM / inhibition at 10 µM / Cell cytotoxicity assay (% Inhibition at 1 μM) / Cell cytotoxicity assay (% Inhibition at 10 μM): DMSO control = 0% inhibition; for inhibition at 1 µM: read-out: Cell cytotoxicity assay (% Inhibition at 1 μM); for inhibition at 10 µM: read-out: Cell cytotoxicity assay (% Inhibition at 10 μM)
Experimental: MiaPaCa-2 Cells (ATCC) were seeded in 96 well plates (Costar clear flat bottom) at a density of 3000 cells/well and allowed to settle overnight. Test compounds were dissolved in dimethyl sulphoxide (DMSO-Sigma Aldrich, D2650) and incubated with MiaPaCa-2 cells for 72 h. Post 72 h, 50 μl XTT (1 mg/mL; Invitrogen, X 6493) and PMS ([…]; Sigma Aldrich, P9625) reagents were added to the cells in 100 μl of cDMEM (Sigma Aldrich-D5648)+10% FBS (Hyclone-5430088-03)+1×Pen Strep (Sigma Aldrich-P0781). After 1 hour incubation with XTT and PMS absorbance was monitored with Spectramax M3 (Molecular Device). Percentage inhibition of proliferation at 10 μM and 1 μM concentrations was calculated by considering DMSO control as 0% inhibition. IC50 values were plotted using Graph pad prism software (Graph pad Inc, La Jola, Calif., USA).

Row | Compound | pIC50 [1] | pIC50 (MiaPaCa-2 cells; Homo sapiens, MIA PaCa-2, 72 h) | inhibition at 1 µM (MiaPaCa-2 cells; Homo sapiens, MIA PaCa-2, 72 h) | inhibition at 10 µM (MiaPaCa-2 cells; Homo sapiens, MIA PaCa-2, 72 h) | pIC50 (MiaPaCa-2 cells) | Cell cytotoxicity assay (% Inhibition at 1 μM) (MiaPaCa-2 cells) | Cell cytotoxicity assay (% Inhibition at 10 μM) (MiaPaCa-2 cells)
1 | Cn1cc(-c2cccnc2OCC2CC(CNC(=O)c3ccc4nccn4c3)=NO2)cn1 (racemic) [Example 1, N-((5-(((3-(1-methyl-1H-pyrazol-4-yl)pyridin-2-yl)oxy)methyl)-4,5-dihydroisoxazol-3-yl)methyl)imidazo[1,2-a]pyridine-6-carboxamide] | > 8.00 | < 6.60 |  |  |  |  | 
2 | O=C(NCC1=NOC(COc2ncccc2-c2ccc(F)nc2)C1)c1ccc2nccn2c1 (racemic) [Example 2, N-((5-(((6′-fluoro-[3,3′-bipyridin]-2-yl)oxy)methyl)-4,5-dihydroisoxazol-3-yl)methyl)-imidazo[1,2-a]pyridine-6-carboxamide] | > 8.00 | 6.60 to 7.30 | 95% | 97% |  |  | 
3 | O=C(NCC1=NOC(COc2ccncc2-c2ccc(F)nc2)C1)c1ccc2nccn2c1 (racemic) [Example 3, N-((5-(((6′-fluoro-[3,3′-bipyridin]-4-yl)oxy)methyl)-4,5-dihydroisoxazol-3-yl)methyl)-imidazo[1,2-a]pyridine-6-carboxamide] |  | < 6.60 | 5% | 80% |  |  | 
4 | O=C(NCC1=NOC(COc2cccnc2-c2ccc(F)nc2)C1)c1ccc2nccn2c1 (racemic) [Example 4, N-((5-(((6′-fluoro-[2,3′-bipyridin]-3-yl)oxy)methyl)-4,5-dihydroisoxazol-3-yl)methyl)imidazo[1,2-a]pyridine-6-carboxamide] | > 8.00 | > 7.30 | 96% | 96% |  |  | 
5 | Cn1cc(-c2ncccc2OCC2CC(CNC(=O)c3ccc4nccn4c3)=NO2)cn1 (racemic) [Example 5, N-((5-(((2-(1-methyl-1H-pyrazol-4-yl)pyridin-3-yl)oxy)methyl)-4,5-dihydroisoxazol-3-yl)methyl)imidazo[1,2-a]pyridine-6-carboxamide] | > 8.00 | 6.60 to 7.30 | 47% | 95% |  |  | 
6 | CNC(=O)c1ccc(-c2ncccc2OCC2CC(CNC(=O)c3ccc4nccn4c3)=NO2)cc1F (racemic) [Example 6, N-((5-(((2-(3-fluoro-4-(methylcarbamoyl)phenyl)pyridin-3-yl)oxy)methyl)-4,5-dihydroisoxazol-3-yl)methyl)imidazo[1,2-a]pyridine-6-carboxamide] | < 7.60 | < 6.60 | 15% | 80% |  |  | 
7 | O=C(NCC1=NOC(COc2cccnc2-c2cccnc2)C1)c1ccc2nccn2c1 (racemic) [Example 7, N-((5-(([2,3′-bipyridin]-3-yloxy)methyl)-4,5-dihydroisoxazol-3-yl)methyl)-imidazo[1,2-a]pyridine-6-carboxamide] | 7.60 to 8.00 | 6.60 to 7.30 | 90% | 90% |  |  | 
8 | O=C(NCC1=NOC(COc2cccnc2-c2ccc(Cl)nc2)C1)c1ccc2nccn2c1 (racemic) [Example 8, N-((5-(((6′-chloro-[2,3′-bipyridin]-3-yl)oxy)methyl)-4,5-dihydroisoxazol-3-yl)methyl)imidazo[1,2-a]pyridine-6-carboxamide] | 7.60 to 8.00 | > 7.30 |  |  |  |  | 
9 | O=C(NCC1=NOC(COc2cc(F)cnc2-c2ccc(F)nc2)C1)c1ccc2nccn2c1 (racemic) [Example 9, N-((5-(((5,6′-difluoro-[2,3′-bipyridin]-3-yl)oxy)methyl)-4,5-dihydroisoxazol-3-yl)methyl)imidazo[1,2-a]pyridine-6-carboxamide] | 7.60 to 8.00 | > 7.30 | 88% | 89% |  |  | 
10 | N#Cc1ccc(OCC2CC(CNC(=O)c3ccc4nccn4c3)=NO2)c(-c2ccc(F)nc2)n1 (racemic) [Example 10, N-((5-(((6-cyano-6′-fluoro-[2,3′-bipyridin]-3-yl)oxy)methyl)-4,5-dihydroisoxazol-3-yl)methyl)imidazo[1,2-a]pyridine-6-carboxamide] | 7.60 to 8.00 | 6.60 to 7.30 | 95% | 95% |  |  | 
11 | Cc1cnc(-c2ccc(F)nc2)c(OCC2CC(CNC(=O)c3ccc4nccn4c3)=NO2)c1 (racemic) [Example 11, N-((5-(((6′-fluoro-5-methyl-[2,3′-bipyridin]-3-yl)oxy)methyl)-4,5-dihydroisoxazol-3-yl)methyl)imidazo[1,2-a]pyridine-6-carboxamide] | 7.60 to 8.00 | > 7.30 | 96% | 95% |  |  | 
12 | Cc1ccc(OCC2CC(CNC(=O)c3ccc4nccn4c3)=NO2)c(-c2ccc(F)nc2)n1 (racemic) [Example 12, N-((5-(((6′-fluoro-6-methyl-[2,3′-bipyridin]-3-yl)oxy)methyl)-4,5-dihydroisoxazol-3-yl)methyl)imidazo[1,2-a]pyridine-6-carboxamide] | < 7.60 | > 7.30 | 96% | 95% |  |  | 
13 | O=C(NCC1=NOC(COc2cc(Cl)cnc2-c2cccnc2)C1)c1ccc2nccn2c1 (racemic) [Example 13, N-((5-(((5-chloro-[2,3′-bipyridin]-3-yl)oxy)methyl)-4,5-dihydroisoxazol-3-yl)methyl)imidazo[1,2-a]pyridine-6-carboxamide] | > 8.00 | 6.60 to 7.30 | 95% | 95% |  |  | 
14 | O=C(NCC1=NOC(COc2cc(F)cnc2-c2cccnc2)C1)c1ccc2nccn2c1 (racemic) [Example 15, N-((5-(((5-fluoro-[2,3′-bipyridin]-3-yl)oxy)methyl)-4,5-dihydroisoxazol-3-yl)methyl)imidazo[1,2-a]pyridine-6-carboxamide] |  | 6.60 to 7.30 | 99% | 99% |  |  | 
15 | O=C(NCC1=NOC(COc2cccnc2-c2cccnc2)C1)c1ccc2nccn2c1 (single isomer, unassigned) [Example 7b, N-((5-(([2,3′-bipyridin]-3-yloxy)methyl)-4,5-dihydroisoxazol-3-yl)methyl)-imidazo[1,2-a]pyridine-6-carboxamide] |  |  |  |  | < 6.60 |  | 
16 | O=C(NCC1=NOC(COc2cccnc2-c2ccc(Cl)nc2)C1)c1ccc2nccn2c1 (single isomer, unassigned) [Example 8a, N-((5-(((6′-chloro-[2,3′-bipyridin]-3-yl)oxy)methyl)-4,5-dihydroisoxazol-3-yl)methyl)imidazo[1,2-a]pyridine-6-carboxamide] |  |  |  |  | < 5.00 | 10% | 10%
17 | N#Cc1ccc(OCC2CC(CNC(=O)c3ccc4nccn4c3)=NO2)c(-c2ccc(F)nc2)n1 (single isomer, unassigned) [Example 10a, N-((5-(((6-cyano-6′-fluoro-[2,3′-bipyridin]-3-yl)oxy)methyl)-4,5-dihydroisoxazol-3-yl)methyl)imidazo[1,2-a]pyridine-6-carboxamide] |  | > 7.30 | 100% | 100% |  |  | 
18 | N#Cc1ccc(OCC2CC(CNC(=O)c3ccc4nccn4c3)=NO2)c(-c2ccc(F)nc2)n1 (single isomer, unassigned) [Example 10b, N-((5-(((6-cyano-6′-fluoro-[2,3′-bipyridin]-3-yl)oxy)methyl)-4,5-dihydroisoxazol-3-yl)methyl)imidazo[1,2-a]pyridine-6-carboxamide] |  |  |  |  |  | 100% | 100%
19 | O=C(NCC1=NOC(COc2cc(Cl)cnc2-c2ccc(F)nc2)C1)c1ccc2nccn2c1 (single isomer, unassigned) [Example 14a, N-((5-(((5-chloro-6′-fluoro-[2,3′-bipyridin]-3-yl)oxy)methyl)-4,5-dihydroisoxazol-3-yl)methyl)imidazo[1,2-a]pyridine-6-carboxamide] |  |  | 93% | 98% | < 6.60 |  | 
20 | O=C(NCC1=NOC(COc2cc(Cl)cnc2-c2ccc(F)nc2)C1)c1ccc2nccn2c1 (single isomer, unassigned) [Example 14b, N-((5-(((5-chloro-6′-fluoro-[2,3′-bipyridin]-3-yl)oxy)methyl)-4,5-dihydroisoxazol-3-yl)methyl)imidazo[1,2-a]pyridine-6-carboxamide] |  |  |  |  | > 7.30 | 100% | 98%
